Biological target: T1, CobL (Rhodobacter capsulatus, UniProt D5AV04)
T1 sequence (D5AV04 1-396): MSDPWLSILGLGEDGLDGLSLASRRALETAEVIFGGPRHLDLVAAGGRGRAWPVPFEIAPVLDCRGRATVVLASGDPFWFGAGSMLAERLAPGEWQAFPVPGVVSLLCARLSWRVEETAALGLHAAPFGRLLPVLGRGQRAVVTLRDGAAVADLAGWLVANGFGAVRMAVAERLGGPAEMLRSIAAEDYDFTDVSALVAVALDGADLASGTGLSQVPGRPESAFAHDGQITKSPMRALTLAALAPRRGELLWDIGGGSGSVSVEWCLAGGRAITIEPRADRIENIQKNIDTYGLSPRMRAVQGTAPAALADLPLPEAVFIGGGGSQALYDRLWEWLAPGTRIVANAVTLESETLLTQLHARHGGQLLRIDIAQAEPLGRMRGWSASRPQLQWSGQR
Assay: C5 alkylation coupled to CobH, UV-visible and HPLC-MS
Assay type: biochemical
Details: CobH 30 uM, pH 8.0, 28°C

Row | SMILES | C5 alkylation coupled to CobH, UV-visible and HPLC-MS (allyl-SAM 170 uM) | C5 alkylation coupled to CobH, UV-visible and HPLC-MS (precorrin-7 60 uM)
1 | CC1=C(CCC(=O)O)C2=N[C@@]1(C)CC1=C(CCC(=O)O)[C@](C)(CC(=O)O)C(=N1)/C=C1\N[C@@](C)([C@@H]3N=C(C2C)[C@](C)(CCC(=O)O)[C@H]3CC(=O)O)[C@@](C)(CC(=O)O)[C@@H]1CCC(=O)O (some centres unmarked) [precorrin-7] | When precorrin-7 was incubated with CobL, CobH, and allyl-SAM the color | 
2 | C=CC[S+](CC[C@H](N)C(=O)O)C[C@H]1O[C@@H](n2cnc3c(N)ncnc32)[C@H](O)[C@@H]1O (some centres unmarked) [allyl-SAM] |  | When precorrin-7 was incubated with CobL, CobH, and allyl-SAM the color

Source: publication PMC6125784 (Cell chemical biology, 2018)
